Measured values: patent US20260215432A1, “ANTIMICROBIAL CONJUGATED OLIGOELECTROLYTES AND METHODS THEREOF” (National University of Singapore, priority 2023, published 2026)

How the values were obtained:
[1] = tested on: M. abscesses (ATCC 19977); assay: MIC against mycobacterium in Middlebrook 7H9 broth; type: cell-based, M. abscessus
Experimental: We also examined non-tuberculous mycobacteria (NTM). These are opportunistic pathogens that are rising in clinical significance due to their increasing prevalence and treatment difficulty. The membrane of Mycobacterium is inherently a greater antibiotic permeability barrier due to its high lipid content relative to other pathogens and long-tailed mycolic acids that contributed to its high lipophilic character. The antimicrobial activity of the TPP analogues were also evaluated against Mycobacterium in Middlebrook 7H9 broth.

[2] = tested on: SA; assay: MIC in physiological-mimicking environments (MHB); type: cell-based, S. aureus
Text: (§1) The complexities of the physiological environment often influence drug activity, particularly when cations in solution are implicated in their oligomerization-dependent mechanisms of action, such as for daptomycin. Binding of free drug to plasma proteins effectively reduces the available free concentration of the drug capable of killing bacteria, resulting in lower observable activity. We tested MIC values of DM4P and DM6P in the presence of human serum albumin (40 g L^−1) and high salt concentrations (Table 4). Under these conditions, the antimicrobial activity was minimally affected by these environmental factors, with MICs remaining within a 2-fold level.

[3] = tested on: PA; assay: MIC in physiological-mimicking environments (MHB); type: cell-based, P. aeruginosa
Text: as §1

[4] = tested on: MRSA; assay: Resistance development by serial passaging at 0.5× MIC; type: cell-based, S. aureus
Experimental: The non-specific action of membrane-active antibiotics lends itself to minimal development of resistance development due to the large metabolic burden involved, unlike traditional antibiotics with a well-defined enzymatic target. Based on this premise, we passaged bacteria incubated with DM6P, or ciprofloxacin (control), at 0.5× MIC to investigate the adaptation of bacteria towards external antibiotic stress. As a control, treatment of MRSA with ciprofloxacin gave rise to antibiotic-resistant mutants within 4 passages, see FIG. 4a. […] Combined with its broad spectrum of activity, this feature opens opportunities for the use of COE antimicrobial agents to address polymicrobial infections with a lower rate of emerging antibiotic resistance.

[5] = tested on: MRSA; assay: Propidium iodide influx assay; type: cell-based, S. aureus; settings: 0.5 to 2 μg mL^−1 (half to twice the MIC)
Text: (§2) Another hallmark of cytoplasmic membrane damage is an enhanced permeability towards small molecules. Propidium iodide (PI) is a membrane-impermeant organic dye that can be used to study potential mechanisms of action of antibiotics due to its enhanced fluorescence intensity upon binding to intracellular DNA. Treatment with molecules that cause membrane perturbations enable rapid influx of the dye, resulting in an increase in fluorescence emission that can be monitored over time. […] This difference hints at two plausible mechanisms of action that are concentration dependent. Similar observations have been made for tobramycin, where a protein inhibition mode of action at lower concentrations (<4 μg mL^−1) is supplanted by disruption of the outer membrane at higher concentrations (8 μg mL^−1).
(§3) The assay was performed according to a modified reported protocol.^4 Briefly, the corresponding bacteria was collected from mid-log cultures by centrifugation (7000 rpm, 10 minutes) and washed thrice with PBS. The pellet was then resuspended in the same buffer and diluted to an optical density of 2 by extrapolation. […] Fluorescence intensity was measured over time in a plate reader with an excitation wavelength of 525 nm and emission wavelength of 620 nm. Fluorescence signals were measured every 30 seconds and carried out in triplicate.

[6] = tested on: PAO1; assay: Propidium iodide influx assay; type: cell-based, P. aeruginosa; settings: PAO1, 2 to 8 μg mL^−1 (half to twice the MIC)
Text: as §2, §3

[7] = tested on: PAO1; assay: Live-dead staining (SYTO-9/PI) fluorescence microscopy; type: cell-based, P. aeruginosa; settings: PAO1, 16 μg mL^−1 for 30 minutes
Experimental: Membrane damage induced by COE treatment was also confirmed by fluorescence microscopy. A combination of SYTO-9 and PI is commonly employed as a live-dead stain to distinguish cells with permeabilized membranes. […] Combined with PI, the contrast between the colours is employed as a visual indicator of membrane damage. PAO1 cells exposed to 16 μg mL^−1 of DM6P for 30 minutes were subsequently stained with both dyes and imaged directly.
Cell membrane integrity was determined using LIVE/DEAD™ BacLight™ bacterial viability kit L7007 (ThermoFisher, USA) according to the manufacturer's protocol. Bacteria cells were collected from mid-log cultures by centrifugation (7000 rpm, 10 minutes). The media was removed, and the bacteria was washed with PBS twice and diluted to a concentration of about 1×10^7 CFU per mL. […] A mixture of the dyes SYTO-9 and PI dissolved in DMSO were added to the suspension at final concentrations of 5 μM and 30 μM respectively. The bacteria were then incubated in the dark for 15 min. Samples were prepared by aliquoting 5 μl onto a clean glass slide, trapped with an 18 mm coverslip and imaged on an epifluorescence microscope (Leica Thunder Imager).

[8] = tested on: MRSA; assay: S. aureus murine wound infection model; type: in vivo, mice; settings: 0.05 mg/kg, MRSA-inoculated mouse wound, 24 hours
Experimental: To probe the potential of TPP-COEs as viable therapeutics, we assessed the efficacy of DM6P to treat bacterial infections in vivo. An S. aureus murine wound infection model was used due to prevalent clinical concerns associated with S. aureus skin and soft tissue infections (SSTIs). […] Relative to current clinical dosages of 4-6 mg/kg for daptomycin, the low concentrations required to achieve such activity in vivo and absence of bacterial regrowth after 24 hours underscores the potential for further developing TPP-COEs with improved activity and safety profiles.
Animal experiments were approved by the Institutional Animal Care and Use Committee (IACUC), National University of Singapore (R20-1178) and carried out in line with procedures in the Guide for the Care and Use of Laboratory Animals (National Institutes of Health). C57BL6 mice (female, 18-20 g) were anaesthetized by ketamine and the hair at the back were shaved and removed. A 6 mm-diameter excisional wound was created on the back using a biopsy punch. Log phase MRSA (in 5 μl PBS) were inoculated onto the wound. A 3M tegaderm were used to cover the wound site from contamination. […] Significant levels were evaluated by a one-way ANOVA followed by a multiple comparison analysis of variance by a one-way Tukey test (Graphpad PRISM).

`COc1cc(/C=C/c2ccc(OCCCCCC[P+](c3ccccc3)(c3ccccc3)c3ccccc3)c(OC)c2)ccc1OCCCCCC[P+](c1ccccc1)(c1ccccc1)c1ccccc1.[I-].[I-]` [DM6P] was tested, and the “MIC M. abscesses” value [1] was 8 µg/mL, the “MIC CaCl2” value ([2]; CaCl2 1 mM) was 1 µg/mL and the “MIC MgCl2” value ([2]; MgCl2 1.25mM) was 1 µg/mL. For the same compound, the “MIC NaCl” value ([2]; NaCl 300 mM) was 1 µg/mL, the “MIC HSA” value ([2]; human serum albumin 40 g L^−1) was 1 µg/mL and the “MIC —” value ([2]; no additive) was 1 µg/mL. For the same compound, the “MIC CaCl2” value ([3]; CaCl2 1 mM) was 4 µg/mL, the “MIC MgCl2” value ([3]; MgCl2 1.25mM) was 4 µg/mL and the “MIC NaCl” value ([3]; NaCl 300 mM) was 8 µg/mL. The “MIC HSA” value ([3]; human serum albumin 40 g L^−1) was 8 µg/mL, the “MIC —” value ([3]; no additive) was 4 µg/mL and the resistance development [4] was “did not induce any observable resistant mutants”. For the same compound, the PI influx [5] was “PI influx was observed at 2×MIC”, the PI influx [6] was “increase in PI influx appeared to be independent of concentration” and the “PI staining in live-dead stain” value [7] was “clear staining by PI”. The “reduction in bacterial load compared to the saline-treated group” value [8] was 3.8 log fold.
